# Earlier results as cited in patent publication US20090041840A1, “Positive wakeup pharmaceutical sleep system with compatible pre-bedtime administration” (priority 2003, published 2009).
# What was measured:
# [1] = Wesensten
# [2] = not given; remark: listed apart in the source
compound,measurement,setting,value
COC(=O)C(c1ccccc1)C1CCCCN1 (racemic) [methylphenidate],"Half-life, average",literature sources,2.5 h
"CCOC(=O)c1ncn2c1CN(C)C(=O)c1cc(F)ccc1-2 [Flumazenil, ethyl 8-fluoro-5,6-dihydro-5-methyl-6-oxo-4H-imidazo(1,5a)(1,4)benzodiazepine-3-carboxylate]",Effect in countering sleep deprivation,[1],ineffective
"Cn1c(=O)c2c(ncn2C)n(C)c1=O [caffeine, 1,3,7-trimethylxanthine]",Mean half-life in plasma,"healthy individuals, Brachtel and Richter, Busto et al.",about 5 hours
NC(=O)C[S+]([O-])C(c1ccccc1)c1ccccc1 (centres unmarked) [modafinil],Half-life,"Wong, et al",approximately 15 hours
CCN(C(C)=O)c1cccc(-c2ccnc3c(C#N)cnn23)c1 [zaleplon],Solubility in water,[2],practically insoluble
